Values joined by “and” are separate entries in the source; they are usually repeats but may differ in a detail not shown here. Equal values may be shown once. Inconclusive results and toxic doses are left out.
System: P388 leukemia ip, CD2F1 mice, survival T/C
Assay: NCI In Vivo Anticancer Drug Screen. Data for tumor model P388 Leukemia (intraperitoneal) in CD2F1 (CDF1) mice
Conditions: endpoint: median survival time, higher = longer survival
In short: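 Mice carrying the transplanted tumor received test compound or vehicle. Survival was recorded in each group, and the value is the treated-group measurement divided by that of the vehicle-treated control group.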

[1] = dose: 100.0 mg/kg/injection, schedule: Q04DX002 (ip), vehicle: Klucel (hydroxypropylcellulose) (HPC)
[2] = dose: 50.0 mg/kg/injection, schedule: Q01DX009 (ip), vehicle: Klucel (hydroxypropylcellulose) (HPC)
[3] = dose: 100.0 mg/kg/injection, schedule: Q01DX009 (ip), vehicle: Klucel (hydroxypropylcellulose) (HPC)
[4] = dose: 200.0 mg/kg/injection, schedule: Q01DX009 (ip), vehicle: Klucel (hydroxypropylcellulose) (HPC)
[5] = dose: 50.0 mg/kg/injection, schedule: Q01DX005 (ip), vehicle: Klucel (hydroxypropylcellulose) (HPC)
[6] = dose: 100.0 mg/kg/injection, schedule: Q01DX005 (ip), vehicle: Klucel (hydroxypropylcellulose) (HPC)
[7] = dose: 60.0 mg/kg/injection, schedule: Q01DX005 (ip), vehicle: Klucel (hydroxypropylcellulose) (HPC)
[8] = dose: 50.0 mg/kg/injection, schedule: Q01DX005 (ip), vehicle: saline with Tween-80
[9] = dose: 100.0 mg/kg/injection, schedule: Q01DX005 (ip), vehicle: saline with Tween-80
[10] = dose: 200.0 mg/kg/injection, schedule: Q01DX005 (ip), vehicle: saline with Tween-80
[11] = dose: 50.0 mg/kg/injection, schedule: Q01DX009 (ip), vehicle: saline with Tween-80
[12] = dose: 100.0 mg/kg/injection, schedule: Q01DX009 (ip), vehicle: saline with Tween-80
[13] = dose: 200.0 mg/kg/injection, schedule: Q01DX009 (ip), vehicle: saline with Tween-80
[14] = dose: 25.0 mg/kg/injection, schedule: Q01DX009 (ip), vehicle: saline with Tween-80
[15] = dose: 25.0 mg/kg/injection, schedule: Q01DX009 (ip), vehicle: Klucel (hydroxypropylcellulose) (HPC)

Compound: C[C@H]1C(=O)NC(=O)[C@@H]1C
- T/C (dose: 50.0 mg/kg/injection, schedule: Q01DX005 (ip), vehicle: saline): 106 % of control
- T/C (dose: 100.0 mg/kg/injection, schedule: Q01DX005 (ip), vehicle: saline): 100 % of control
- T/C (dose: 200.0 mg/kg/injection, schedule: Q01DX005 (ip), vehicle: saline): 103 % of control

Compound: N#CSCc1cc(Cl)c(Cl)cc1Cl
- T/C (dose: 25.0 mg/kg/injection, schedule: Q04DX002 (ip), vehicle: saline with Tween-80): 106 % of control
- T/C (dose: 50.0 mg/kg/injection, schedule: Q04DX002 (ip), vehicle: saline with Tween-80): 106 % of control
- T/C [1]: 107 % of control
- T/C (dose: 100.0 mg/kg/injection, schedule: Q04DX002 (ip), vehicle: saline with Tween-80): 100 % of control

Compound: COc1cccc(C)c1C1CC2CCCN2O1 (stereo not drawn)
- T/C [2]: 105 % of control
- T/C [3]: 106 % of control
- T/C [4]: 89 % of control

Compound: COC[N+](C)(C)c1ccc(/C=C/C=O)cc1
- T/C (dose: 12.5 mg/kg/injection, schedule: Q01DX009 (ip), vehicle: saline): 114 % of control
- T/C (dose: 25.0 mg/kg/injection, schedule: Q01DX009 (ip), vehicle: saline): 109 % of control
- T/C (dose: 50.0 mg/kg/injection, schedule: Q01DX009 (ip), vehicle: saline): 118 % of control and 98 % of control

Compound: CC(SCCCCCCCCCCSC(C)C(=O)O)C(=O)O (stereo not drawn)
- T/C [5]: 93 % of control
- T/C [6]: 98 % of control
- T/C (dose: 200.0 mg/kg/injection, schedule: Q01DX005 (ip), vehicle: Klucel (hydroxypropylcellulose) (HPC)): 95 % of control

Compound: CCCCCCC(O)CCCCCCCCCCC(N)=O (stereo not drawn)
- T/C (dose: 6.25 mg/kg/injection, schedule: Q01DX005 (ip), vehicle: Klucel (hydroxypropylcellulose) (HPC)): 99 % of control
- T/C (dose: 12.5 mg/kg/injection, schedule: Q01DX005 (ip), vehicle: Klucel (hydroxypropylcellulose) (HPC)): 96 % of control
- T/C (dose: 25.0 mg/kg/injection, schedule: Q01DX005 (ip), vehicle: Klucel (hydroxypropylcellulose) (HPC)): 94 % of control

Compound: CCOC(=O)NC(=O)NC(=O)OCC
- T/C (dose: 100.0 mg/kg/injection, schedule: Q04DX003 (ip), vehicle: saline sonified): 100 % of control
- T/C (dose: 200.0 mg/kg/injection, schedule: Q04DX003 (ip), vehicle: saline sonified): 100 % of control
- T/C (dose: 400.0 mg/kg/injection, schedule: Q04DX003 (ip), vehicle: saline sonified): 100 % of control

Compound: O=C1C(c2ccc3ccccc3n2)=C(O)c2ccccc21
- T/C (dose: 15.0 mg/kg/injection, schedule: Q01DX005 (ip), vehicle: Klucel (hydroxypropylcellulose) (HPC)): 101 % of control
- T/C (dose: 30.0 mg/kg/injection, schedule: Q01DX005 (ip), vehicle: Klucel (hydroxypropylcellulose) (HPC)): 96 % of control
- T/C [7]: 101 % of control and 88 % of control

Compound: CC1=NOC(=O)/C1=C/c1ccc2c(c1)OCO2
- T/C [8]: 106 % of control
- T/C [9]: 105 % of control
- T/C [10]: 113 % of control

Compound: COC1/C=C/OC2(C)Oc3c(C)c(O)c4c(O)c(c(/C=N/n5cnc6c(ncn6C6OC(CO)C(O)C6O)c5=O)c(O)c4c3C2=O)NC(=O)/C(C)=C\C=C\C(C)C(O)C(C)C(O)C(C)C(OC(C)=O)C1C (stereo not drawn)
- T/C [11]: 106 % of control
- T/C [12]: 97 % of control
- T/C [13]: 102 % of control

Compound: CC(=O)OCC1OC(n2ccc3c(=O)[nH]c(=O)[nH]c32)C(OC(C)=O)C(OC(C)=O)C1OC(C)=O (stereo not drawn)
- T/C (dose: 100.0 mg/kg/injection, schedule: Q01DX001 (ip), vehicle: saline with Tween-80): 104 % of control
- T/C (dose: 200.0 mg/kg/injection, schedule: Q01DX001 (ip), vehicle: saline with Tween-80): 99 % of control
- T/C (dose: 400.0 mg/kg/injection, schedule: Q01DX001 (ip), vehicle: saline with Tween-80): 100 % of control

Compound: Cc1cc(C)nc(NS(=O)(=O)c2ccc(N=Cc3c4ccccc4nc4cc(Cl)ccc34)cc2)n1
- T/C [8]: 93 % of control
- T/C [9]: 93 % of control
- T/C [10]: 93 % of control

Compound: CCN(CC)CCOc1cccc2c1C(=O)c1c(O)cccc1C2=O
- T/C [14]: 103 % of control and 95 % of control
- T/C [11]: 105 % of control and 97 % of control
- T/C [12]: 158 % of control

Compound: CN(C)c1ccc(C=Nc2cccc(Cl)c2)cc1
- T/C [2]: 108 % of control
- T/C [3]: 98 % of control
- T/C [4]: 103 % of control

Compound: CC1(C)CC(O)(Cc2ccccc2)C(=O)c2ccccc21 (stereo not drawn)
- T/C [15]: 96 % of control
- T/C [2]: 95 % of control
- T/C [3]: 98 % of control
- T/C [4]: 98 % of control
- T/C (dose: 400.0 mg/kg/injection, schedule: Q01DX009 (ip), vehicle: Klucel (hydroxypropylcellulose) (HPC)): 86 % of control

Compound: C1=CN2CC(c3ccccc3)=NNC2c2ccccc21 (stereo not drawn)
- T/C [1]: 107 % of control
- T/C (dose: 200.0 mg/kg/injection, schedule: Q04DX002 (ip), vehicle: Klucel (hydroxypropylcellulose) (HPC)): 99 % of control

Compound: Nc1nc(N)nc(-c2cc(Br)c(N)c(Br)c2)n1
- T/C [8]: 95 % of control
- T/C [9]: 101 % of control
- T/C [10]: 93 % of control

Compound: C=CCC1CCC/C1=N\O (stereo not drawn)
- T/C (dose: 60.0 mg/kg/injection, schedule: Q01DX005 (ip), vehicle: saline with Tween-80): 105 % of control
- T/C (dose: 120.0 mg/kg/injection, schedule: Q01DX005 (ip), vehicle: saline with Tween-80): 104 % of control
- T/C (dose: 240.0 mg/kg/injection, schedule: Q01DX005 (ip), vehicle: saline with Tween-80): 100 % of control

Compound: COc1ccc(C2=C(Cl)C(=O)N(c3ccccc3OC)C(=O)C2(Cl)Cl)cc1
- T/C (dose: 100.0 mg/kg/injection, schedule: Q04DX003 (ip), vehicle: Klucel (hydroxypropylcellulose) (HPC)): 107 % of control
- T/C (dose: 200.0 mg/kg/injection, schedule: Q04DX003 (ip), vehicle: Klucel (hydroxypropylcellulose) (HPC)): 103 % of control
- T/C (dose: 400.0 mg/kg/injection, schedule: Q04DX003 (ip), vehicle: Klucel (hydroxypropylcellulose) (HPC)): 98 % of control

Compound: CN(CCc1ccccn1)c1ccc2c(c1)Cc1ccccc1-2
- T/C [5]: 98 % of control
- T/C [6]: 93 % of control

Compound: CCOc1cc2c(cc1C(C)c1ccc(OC)cc1)OCO2 (stereo not drawn)
- T/C (dose: 25.0 mg/kg/injection, schedule: Q01DX005 (ip), vehicle: distilled water + alcohol): 96 % of control
- T/C (dose: 50.0 mg/kg/injection, schedule: Q01DX005 (ip), vehicle: distilled water + alcohol): 100 % of control and 119 % of control
- T/C (dose: 100.0 mg/kg/injection, schedule: Q01DX005 (ip), vehicle: distilled water + alcohol): 123 % of control
- T/C (dose: 200.0 mg/kg/injection, schedule: Q01DX005 (ip), vehicle: distilled water + alcohol): 92 % of control

Compound: CCC1CN2CCc3cc(OC)c(OC)cc3C2CC1CCCl (stereo not drawn)
- T/C (dose: 12.5 mg/kg/injection, schedule: Q01DX009 (ip), vehicle: Klucel (hydroxypropylcellulose) (HPC)): 94 % of control
- T/C [15]: 103 % of control
- T/C [2]: 103 % of control and 106 % of control

Compound: CC1(O)CC2(O)C=CC3=C(C(=O)c4cccc(O)c4C3=O)C2(O)C(=O)C1O (stereo not drawn)
- T/C (dose: 0.75 mg/kg/injection, schedule: Q01DX005 (ip), vehicle: distilled water + Tween-80 + alcohol): 107 % of control
- T/C (dose: 1.5 mg/kg/injection, schedule: Q01DX005 (ip), vehicle: distilled water + Tween-80 + alcohol): 114 % of control

Compound: Clc1ccc(N=Cc2cccs2)cc1
- T/C (dose: 3.13 mg/kg/injection, schedule: Q01DX009 (ip), vehicle: saline with Tween-80): 100 % of control
- T/C (dose: 6.25 mg/kg/injection, schedule: Q01DX009 (ip), vehicle: saline with Tween-80): 88 % of control
- T/C (dose: 12.5 mg/kg/injection, schedule: Q01DX009 (ip), vehicle: saline with Tween-80): 90 % of control
- T/C [14]: 101 % of control
- T/C [2]: 110 % of control
- T/C [3]: 100 % of control
- T/C [4]: 100 % of control

Compound: COc1cccc2c1C(=O)c1c(O)c3c(c(O)c1C2=O)CC(O)(C(N)=O)CC3OC1CC(N)C(O)C(C)O1 (stereo not drawn)
- T/C (dose: 0.39 mg/kg/injection, schedule: Q01DX009 (ip), vehicle: water): 101 % of control
- T/C (dose: 6.25 mg/kg/injection, schedule: Q01DX009 (ip), vehicle: water): 151 % of control

Compound: CCOC(=O)c1cn(CC)c2c(ccc3cnccc32)c1=O
- T/C [7]: 103 % of control
- T/C (dose: 120.0 mg/kg/injection, schedule: Q01DX005 (ip), vehicle: Klucel (hydroxypropylcellulose) (HPC)): 100 % of control
- T/C (dose: 240.0 mg/kg/injection, schedule: Q01DX005 (ip), vehicle: Klucel (hydroxypropylcellulose) (HPC)): 98 % of control

Compound: CC1(CCC(=O)c2cc3c(cc2Br)OCO3)OCCO1
- T/C (dose: 25.0 mg/kg/injection, schedule: Q01DX005 (ip), vehicle: saline with Tween-80): 99 % of control
- T/C [8]: 99 % of control
- T/C [9]: 100 % of control

Compound: CC12COC3(C)CCC(C)(OC1)N23 (stereo not drawn)
- T/C [11]: 100 % of control
- T/C [12]: 97 % of control
- T/C [13]: 103 % of control

Reference: PubChem BioAssay AID330 (DTP/NCI, 2004)
